Assay results: ChEMBL document CHEMBL1781971, “Discovery of 5-(arenethynyl) hetero-monocyclic derivatives as potent inhibitors of BCR-ABL including the T315I gatekeeper mutant” (Bioorg Med Chem Lett, 2011)

What was measured:
[1] = target: Tyrosine-protein kinase ABL1 (Homo sapiens, UniProt P00519)
[2] = target: Tyrosine-protein kinase ABL1 (Homo sapiens, UniProt P00519, T315I)
[3] = cells; conditions: Mus musculus, BaF3
[4] = cells; conditions: Mus musculus, BaF3; remark: listed apart in the source
Description: Antiproliferative activity against BCR-ABL-negative parental mouse BA/F3 cells

[5] = Clearance in rat at 5 mg/kg, iv; assay type: ADME, organism-based; parameters: dose 5 mg/kg, route intravenous; conditions: in vivo
[6] = Cmax in rat at 15 mg/kg, po; assay type: ADME, organism-based; parameters: dose 15 mg/kg, route oral; conditions: in vivo
[7] = Half life in rat at 5 mg/kg, iv; assay type: ADME, organism-based; parameters: dose 5 mg/kg, route intravenous; conditions: in vivo
[8] = Oral bioavailability in rat at 15 mg/kg; assay type: ADME, organism-based; conditions: in vivo
[9] = Half life in rat at 15 mg/kg, po; assay type: ADME, organism-based; parameters: dose 15 mg/kg, route oral; conditions: in vivo
[10] = Plasma concentration in mouse after 6 hrs at 30 mg/kg, po; assay type: ADME, organism-based; parameters: dose 30 mg/kg, route oral
[11] = Volume of distribution in rat at 5 mg/kg, iv; assay type: ADME, organism-based; parameters: dose 5 mg/kg, route intravenous; conditions: in vivo
[12] = cells; conditions: Mus musculus, BaF3; remark: listed apart in the source
Description: Antiproliferative activity against mouse BA/F3 cells expressing wild type BCR-ABL

[13] = test system: Rattus norvegicus; assay: AUC in rat at 15 mg/kg, po; assay type: ADME, organism-based, Plasma; parameters: dose 15 mg/kg, route oral; conditions: in vivo
[14] = Cmax in rat at 5 mg/kg, iv; assay type: ADME, organism-based; parameters: dose 5 mg/kg, route intravenous; conditions: in vivo
[15] = test system: Rattus norvegicus; assay: AUC in rat at 5 mg/kg, iv; assay type: ADME, organism-based, Plasma; parameters: dose 5 mg/kg, route intravenous; conditions: in vivo

SMILES	IC50 [1]	IC50 [2]	IC50 [3]	IC50 [4]	clearance [5]	Cmax [6]	half-life [7]	bioavailability [8]	half-life [9]	concentration at 6 h [10]	Vd [11]	IC50 [12]	AUC [13]	Cmax [14]	AUC [15]
Cc1ccc(C(=O)Nc2ccc(CN3CCN(C)CC3)c(C(F)(F)F)c2)cc1C#Cc1cncnc1	62.7 nM	435 nM	65 nM	2820 nM	15.7 mL/min/kg	900 ng/mL	6.2 h	85%	10 h	771 ng/mL	8.5 L/kg	3.1 nM	13559 h/ng/mL	822 ng/mL	5308 h/ng/mL
Cc1ccc(C(=O)Nc2ccc(CN3CCN(C)CC3)c(C(F)(F)F)c2)cc1C#Cc1cnc(NC2CC2)nc1	49.7 nM	457 nM	519 nM	607 nM	–	–	–	–	–	–	–	195 nM	–	–	–
Cc1ccc(C(=O)Nc2ccc(CN3CCN(C)CC3)c(C(F)(F)F)c2)cc1C#Cc1cnc[nH]1	1000 nM	3720 nM	5740 nM	6550 nM	–	–	–	–	–	–	–	730 nM	–	–	–
Cc1ccc(C(=O)Nc2ccc(CN3CCN(C)CC3)c(C(F)(F)F)c2)cc1C#Cc1cncn1C	129 nM	550 nM	709 nM	5650 nM	–	–	–	–	–	–	–	43 nM	–	–	–

Second part, the compound after the results:

IC50 [1]	IC50 [2]	IC50 [3]	IC50 [4]	clearance [5]	Cmax [6]	half-life [7]	bioavailability [8]	half-life [9]	concentration at 6 h [10]	Vd [11]	IC50 [12]	AUC [13]	Cmax [14]	AUC [15]	SMILES
3.6 nM	36 nM	5.8 nM	1320 nM	35.8 mL/min/kg	61.4 ng/mL	3.5 h	14%	6.3 h	333 ng/mL	11 L/kg	0.61 nM	962 h/ng/mL	598 ng/mL	2320 h/ng/mL	Cc1ccc(C(=O)Nc2ccc(CN3CCN(CCO)CC3)c(C(F)(F)F)c2)cc1C#Cc1cnc(C(N)=O)n1C
40.3 nM	123 nM	45.5 nM	2040 nM	–	–	–	–	–	–	–	4.1 nM	–	–	–	Cc1ccc(C(=O)Nc2ccc(CN3CCN(C)CC3)c(C(F)(F)F)c2)cc1C#Cc1cccnc1
18 nM	121 nM	9.6 nM	1790 nM	–	–	–	–	–	–	–	2.2 nM	–	–	–	CC(=O)Nc1ccc(C#Cc2cc(C(=O)Nc3ccc(CN4CCN(C)CC4)c(C(F)(F)F)c3)ccc2C)cn1
28.6 nM	104 nM	13.4 nM	1660 nM	–	–	–	–	–	–	–	2.5 nM	–	–	–	CCC(=O)Nc1ccc(C#Cc2cc(C(=O)Nc3ccc(CN4CCN(C)CC4)c(C(F)(F)F)c3)ccc2C)cn1
48.7 nM	321 nM	18 nM	1020 nM	–	–	–	–	–	–	–	2.6 nM	–	–	–	Cc1ccc(C(=O)Nc2ccc(CN3CCN(C)CC3)c(C(F)(F)F)c2)cc1C#Cc1ccc(C(N)=O)nc1
